# In patent publication US11427593B2, “Bromodomain inhibitor compound and use thereof” (SHANGHAI INSTITUTE OF MATERIA MEDICA, CHINESE ACADEMY OF …, priority 2018, dated 2022):
# pIC50: −log10 of the molar value.
# Molecular target: BRD4_BD1 (49-170) protein (Homo sapiens (Human), UniProt O60885)
# Assay: AlphaScreen assay: inhibition of binding of BRD4 bromodomain BD1 to acetylated histone H4 polypeptide
# Settings: BRD4 BD1 vs acetylated H4 polypeptide, read-out: ALPHA IC50
# Source text: AlphaScreen kit (Perkin Elmer) was used to detect effect of the compounds on binding of BRD4 bromodomain to acetylated histone H4 polypeptide. […] Each of fusion proteins containing (His)6tag can be recognized and bound by Ni^2+. […] The donor microbeads were coated with streptavidin and can bind to biotinylated acetylated H4 polypeptide. The acceptor microbeads were coated with Ni^2+ ions and can bind to the BD1 protein with (His)6tag. When the BD1 protein recognized the acetylated H4 polypeptide, the donor microbeads and the acceptor microbeads can be brought closer to a certain distance. Within this range, the donor microbeads can produce singlet oxygen after being irradiated with a 680 nm excitation light, and transfer the singlet oxygen to the acceptor microbeads. After a series of cascade chemical reactions, the acceptor microbeads will generate an emission wave of 520-620 nm, which in turn can be detected a signal. In this experiment, the test system was 20 μL, and the compound needs to be diluted in buffer 1 (20 mM HEPES pH 7.4, 150 mM NaCl, 1 mM dithiothreitol). First, a solution of 20 mM compound was consecutively diluted twice, each in 10 times, totally in 100 times to a concentration of 200 μM. […] The recombinant BD1 protein solution and the acetylated histone H4 polypeptide were diluted in the buffer 2 (20 mM HEPES pH 7.4, 150 mM NaCl, 0.01% Triton X-100, 0.1% bovine serum protein (w/v, Sigma), 1 mM dithiothreitol) to 100 nM and 100 nM respectively, to obtain a 8×BD1 protein working solution and a 4× acetylated histone H4 polypeptide working solution. The donor microbeads and the acceptor microbeads are diluted together in the buffer 2, both in the ratio of 1:100, to obtain a 2× microbead mixed working solution. The plate was added with 2.5 μL of BD1 protein working solution and incubated with the compound for 20 min at room temperature, and then added with 5 μL of acetylated histone H4 polypeptide working solution and incubated at room temperature for 5 min, and finally added with 10 μL of microbead mixed working solution and incubated at room temperature for 60 min. […] IC50 values of the compounds at different concentrations for inhibiting the binding of BD1 protein to acetylated H4 polypeptide were calculated by fitting using GraphPad Prism 5.0 software.
row,pIC50,SMILES
1,7.85,Cc1cc(-c2cc(NS(C)(=O)=O)ccc2Oc2cccnc2)n2cc[nH]c(=O)c12 [ZB-BD-94]
2,7.84,CCS(=O)(=O)Cc1cnc(Oc2ccc(F)cc2F)c(-c2cc(C)c3c(=O)[nH]ncn23)c1 [ZB-BD-241]
3,7.44,Cc1cc(-c2cc(NS(C)(=O)=O)ccc2Oc2cccnc2)n2cn[nH]c(=O)c12 [ZB-BD-120]
4,8.06,CCS(=O)(=O)Cc1ccc(Oc2ccc(F)cc2F)c(-c2cc(C)c3c(=O)[nH]ccn23)c1 [ZB-BD-116]
5,6.49,Cc1cc(-c2cc(S(C)(=O)=O)ccc2Nc2ccccc2)n2cc[nH]c(=O)c12 [ZB-BD-130]

# Test system: MV4-11 cells
# Assay: Cell growth inhibition assay, MV4-11 (CellTiter-Glo, 72 h)
# Format: cell-based
# Settings: Homo sapiens, MV4-11 acute mononuclear leukemia cells
# Method: After seeding the cells in the plate, the cells were placed in a CO2 incubator (37° C., 5% CO2) and incubated for 1 h. […] After adding the compound, the cells were placed in a CO2 incubator (37° C., 5% CO2) for 72 h. CellTiter-Glo reagent (Promega, G7572) was used to determine cell survival. […] The detection result was analyzed and fitted by GraphPad Prism 5.0 software to give IC50 values.
row,SMILES,pIC50
1,Cc1cc(-c2cc(CS(C)(=O)=O)ccc2Nc2ccccc2)n2cc[nH]c(=O)c12 [ZB-BD-87],7.10
2,Cc1cc(-c2cc(CS(C)(=O)=O)ccc2Nc2ccc(F)cc2)n2cc[nH]c(=O)c12 [ZB-BD-90],7.12
3,Cc1cc(-c2cc(NS(C)(=O)=O)ccc2Oc2ccccc2)n2cc[nH]c(=O)c12 [ZB-BD-70],7.48
4,CCS(=O)(=O)c1ccc(Oc2c(C)cccc2C)c(-c2cc(C)c3c(=O)[nH]ccn23)c1 [ZB-BD-239],7.04
5,CCS(=O)(=O)Cc1ccc(Oc2c(C)cccc2C)c(-c2cc(C)c3c(=O)[nH]ccn23)c1 [ZB-BD-237],7.67
6,Cc1cccc(C)c1Oc1ccc(NS(C)(=O)=O)cc1-c1cc(C)c2c(=O)[nH]ccn12 [ZB-BD-236],7.31
7,Cc1cc(-c2cc(NS(C)(=O)=O)ccc2Oc2ccccc2)n2cn[nH]c(=O)c12 [ZB-BD-102],> 7.00

# Second part, the compound after the results:
row,pIC50,SMILES
1,> 7.00,Cc1cc(-c2cc(NS(C)(=O)=O)ccc2OC2CCOCC2)n2cc[nH]c(=O)c12 [ZB-BD-96]
2,6.88,Cc1cc(-c2cc(NS(C)(=O)=O)ccc2OCC2CC2)n2cc[nH]c(=O)c12 [ZB-BD-83]
3,> 7.00,Cc1cc(-c2cc(NS(C)(=O)=O)ccc2Oc2ccc(F)cc2F)n2cn[nH]c(=O)c12 [ZB-BD-103]
4,7.69,CCS(=O)(=O)Nc1ccc(Oc2ccc(F)cc2F)c(-c2cc(C)c3c(=O)[nH]ccn23)c1 [ZB-BD-78]
5,8.28,CCS(=O)(=O)c1ccc(Oc2ccccc2C)c(-c2cc(C)c3c(=O)[nH]ccn23)c1 [ZB-BD-240]
6,7.51,Cc1cc(-c2cc(NS(C)(=O)=O)ccc2Oc2ccccc2)n2c1C(=O)NCC2 [ZB-BD-74]
7,7.60,Cc1ccccc1Oc1ccc(NS(C)(=O)=O)cc1-c1cc(C)c2c(=O)[nH]ccn12 [ZB-BD-232]
8,7.87,CCS(=O)(=O)Nc1ccc(Oc2ccccc2)c(-c2cc(C)c3c(=O)[nH]ccn23)c1 [ZB-BD-77]
9,7.04,Cc1cc(-c2cc(NS(C)(=O)=O)ccc2Oc2cccnc2)n2cc[nH]c(=O)c12 [ZB-BD-94]
10,8.10,CCS(=O)(=O)Cc1cnc(Oc2ccc(F)cc2F)c(-c2cc(C)c3c(=O)[nH]ncn23)c1 [ZB-BD-241]
11,6.95,Cc1cc(-c2cc(NS(C)(=O)=O)ccc2Oc2cccnc2)n2cn[nH]c(=O)c12 [ZB-BD-120]
12,7.53,Cc1cc(-c2cc(NS(C)(=O)=O)ccc2Oc2ccc(F)cc2F)n2cc[nH]c(=O)c12 [ZB-BD-80]

# Test system: MM.1S cells
# Assay: MM.1S cell growth inhibition assay (CellTiter Glo, 96 h)
# Format: cell-based
# Settings: Homo sapiens, MM1.S, MM.1S multiple myeloma cells
# Method: The cell suspension was pipetted into a 15 mL centrifuge tube, and centrifuged at 800 rpm for 3 minutes. The supernatant was discarded. 2 mL of culture medium was added to the centrifuge tube, and the cells were resuspended evenly by gentle pipetting. The cell density was measure by a hemacytometer. Then the cell suspension was diluted to 50,000 cells/mL. The diluted cell suspension was added to a 96-well cell culture plate (Corning, 3599) in 100 μl/well (in column 1, there was 0.5% DMSO-containing medium in each well, and MM.1S cells were seeded in the remaining 88 wells). The plate was placed in a CO2 incubator overnight.
# The compound to be tested was prepared into 10 mM solution in DMSO, and then the compound was prepared into a 2 mM solution in DMSO, which was added to the compound plate, and then it was diluted with DMSO in a 4-fold gradient dilution to be 7 points. 0.5 μL of the compound in the plate of the compound to be tested was pipetted into the cell culture plate (the compound was added to rows A to G, and 0.5 μL of DMSO was added to row H as a control). The final concentrations of the compound were 10000 nM, 2500 nM, 625 nM, 156.25 nM, 39.06 nM, 9.77 nM, 2.44 nM. The plate was returned to the CO2 incubator and incubated for 96 h. Then cell survival was detected by using CellTiter Glo reagent (Promega, Cat. No. G7573, Lot. No. 0000310975). The cell culture plate was taken out and equilibrated to room temperature. 100 μL of CellTiter Glo reagent was added to each well. The plate was shaken for 10 min in the dark, and incubated for 10 min. Then the culture plate was put into a multi-functional microplate reader EnSpire (PerkinElmer) for reading, and detected at 400-700 nm. The reading data were recorded. […] XLFit was used to plot the dose-response inhibition curve (four-parameter model [fit=(A+((B−A)/(1+((C/x)^D))))] and calculate the IC50 values.
row,SMILES,pIC50
1,Cc1cc(-c2cc(CS(C)(=O)=O)ccc2OC2CCCCC2)n2cc[nH]c(=O)c12 [ZB-BD-187],7.64
2,Cc1cc(-c2cc(NS(C)(=O)=O)cnc2OC2CCCCC2)n2cc[nH]c(=O)c12 [ZB-BD-179],7.27
3,CCS(=O)(=O)Cc1ccc(Oc2ccc(F)cc2F)c(-c2cc(C)c3c(=O)[nH]ccn23)c1 [ZB-BD-116],7.15
4,Cc1cc(-c2cc(CS(C)(=O)=O)cnc2Oc2ccc(F)cc2F)n2cc[nH]c(=O)c12 [ZB-BD-147],7.13

# The next lines start with the values.
row,pIC50,SMILES
1,7.41,Cc1cc(-c2cc(NS(C)(=O)=O)ccc2OC2CCCCC2)n2cc[nH]c(=O)c12 [ZB-BD-92]
2,7.59,Cc1cc(-c2cc(CS(C)(=O)=O)cnc2OC2CCCCC2)n2cc[nH]c(=O)c12 [ZB-BD-202]
3,7.28,CCS(=O)(=O)Nc1ccc(Oc2ccc(F)cc2F)c(-c2cc(C)c3c(=O)[nH]ccn23)c1 [ZB-BD-78]
4,7.19,Cc1cc(-c2cc(CS(C)(=O)=O)ccc2Oc2ccc(F)cc2F)n2cc[nH]c(=O)c12 [ZB-BD-112]
5,7.85,CCS(=O)(=O)Cc1cnc(Oc2ccc(F)cc2F)c(-c2cc(C)c3c(=O)[nH]ccn23)c1 [ZB-BD-216]

# Same assay, conditions: MM.1S multiple myeloma cells
row,SMILES,pIC50
1,"Cc1sc2c(c1C)C(c1ccc(Cl)cc1)=N[C@@H](CC(=O)OC(C)(C)C)c1nnc(C)n1-2 [JQ1, reference compound]",6.74
